Like-named read-outs stand apart in the source and are kept apart here.
Assays:
[1] = test system: PC-3 human prostate cancer cells; experiment: Cell viability MTT assay, PC-3; assay type: cell-based; details: for GI50: 72 h, MTT assay; for IC50: Table 3, tumor cell model
[2] = test system: NIH3T3 murine fibroblast cells; experiment: Cell viability MTT assay, NIH3T3; assay type: cell-based; details: for GI50: 72 h, MTT assay; for Selectivity index NIH3T3: SI = GI50 (non-cancer cell line NIH3T3)/GI50 (cancer cell line PC-3); for IC50: Table 3, non tumoral cell model, read-out: IC50 NIH3T3 (fibroblasts)
Description: (§1) HepG-2 human liver cancer cells were cultured in EMEM containing 10% of FBS, 1% of nonessential amino acids, 1 mM of Na-pyruvate, 1% of PenStrep antibiotics and 600 μg/mL of Geneticin. A549 human lung carcinoma cells, T24 human bladder carcinoma cells, MCF-7 human breast adenocarcinoma cells, U-2OS human osteosarcoma and NIH3T3 murine fibroblast cells were cultured in DMEM medium containing 10% fetal bovine serum and 1% antibiotics at 37° C. in 5% CO2 humidified incubators. MC3T3 mouse osteoblast cells were cultured in MEM medium containing 10% fetal bovine serum and 1% antibiotics at 37° C. in 5% CO2 humidified incubators. RWPE-1 human prostate normal cells were cultured in K-SFM medium containing 0.05 mg/ml bovine pituitary extract (BPE) and 5 ng/ml epidermal growth factor (EGF) at 37° C. in 5% CO2 humidified incubators. The MTT reagent (3-(4,5-dimethylthiazol-2-yl)-2,5-diphenyltetrazolium bromide) was used to determine cell death as originally described by Mosmaneland modified by Cuvillier et al.^[6] Briefly, cells were seeded 5,000 to 10,000 cells/well in 24-well plates depending on the cell type and allowed to attach overnight. All of the complexes were dissolved in DMSO. The concentration of the complexes was calculated according to the elemental composition of the complexes determined by the elemental analyses. Media in the presence of the tested complexes were added and serially diluted to various concentrations (from 5 μM to 0.01 μM). Next to these concentrations, for DHA 50, 20 and 10 μM and for the cationic bisNHC gold(I) complex 3 0.001 μM have been used. […] After 72 h of treatment, cells were incubated at 37° C. and 5% CO2 with 25 μL MTT solution (5 mg/mL; Sigma-Aldrich) in 24-well plates for approximately 3 to 4 h. After solubilization with 500 μL of lysis buffer (DMSO), formazan was quantified by spectrophotometry with a microplate reader at 570 nm absorbance. […] All the results were calculated from data obtained in three independent experiments.

[3] = test system: MC3T3 mouse osteoblast cells; experiment: Cell viability MTT assay, MC3T3; assay type: cell-based; details: for GI50: 72 h, MTT assay; for Selectivity index MC3T3: SI = GI50 (MC3T3)/GI50 (PC-3); for IC50: Table 3, non tumoral cell model, read-out: IC50 MC3-T3 (osteoblasts); for Specificity Bone: MC3-T3 (normal immortalized)/U2OS (tumoral): ratio of IC50, tumoral versus non tumoral cells of same tissue
Description: (§2) PC-3 human prostate cancer cells, and LAMA chronic myeloid leukemia were cultured in RPMI 1640 containing 10% fetal bovine serum and 1% antibiotics (100 U/mL penicillin and 100 μg/mL streotimycin) at 37° C. in 5% CO2 humidified incubators. HL60 […] were cultured in RPMI 1640 containing 15% fetal bovine serum and 1% antibiotics (100 U/mL penicillin and 100 μg/mL streotimycin) at 37° C. in 5% CO2 humidified incubators. HepG-2 human liver cancer cells were cultured in EMEM containing 10% of FBS, 1% of nonessential amino acids, 1 mM of Na-pyruvate, 1% of PenStrep antibiotics and 600 μg/mL of Geneticin. A549 human lung carcinoma cells, T24 human bladder carcinoma cells, MCF-7 human breast adenocarcinoma cells, U-2OS human osteosarcoma and NIH3T3 murine fibroblast cells were cultured in DMEM medium containing 10% fetal bovine serum and 1% antibiotics at 37° C. in 5% CO2 humidified incubators. MC3T3 mouse osteoblast cells were cultured in MEM medium containing 10% fetal bovine serum and 1% antibiotics at 37° C. in 5% CO2 humidified incubators. RWPE-1 human prostate normal cells were cultured in K-SFM medium containing 0.05 mg/ml bovine pituitary extract (BPE) and 5 ng/ml epidermal growth factor (EGF) at 37° C. in 5% CO2 humidified incubators. The MTT reagent (3-(4,5-dimethylthiazol-2-yl)-2,5-diphenyltetrazolium bromide) was used to determine cell death as originally described by Mosmaneland modified by Cuvillier et al.^[6] Briefly, cells were seeded 5,000 to 10,000 cells/well in 24-well plates depending on the cell type and allowed to attach overnight. All of the complexes were dissolved in DMSO. The concentration of the complexes was calculated according to the elemental composition of the complexes determined by the elemental analyses. Media in the presence of the tested complexes were added and serially diluted to various concentrations (from 5 μM to 0.01 μM). Next to these concentrations, for DHA 50, 20 and 10 μM and for the cationic bisNHC gold(I) complex 3 0.001 μM have been used. […] After 72 h of treatment, cells were incubated at 37° C. and 5% CO2 with 25 μL MTT solution (5 mg/mL; Sigma-Aldrich) in 24-well plates for approximately 3 to 4 h. After solubilization with 500 μL of lysis buffer (DMSO), formazan was quantified by spectrophotometry with a microplate reader at 570 nm absorbance. The GI50 values corresponding to the concentration that caused 50% inhibition of cell proliferation were calculated from dose-response curves obtained by nonlinear regression analysis (Prism 8, Graphpad Software). All the results were calculated from data obtained in three independent experiments.

[4] = test system: RWPE-1 human prostate normal cells; experiment: Cell viability MTT assay, RWPE-1; assay type: cell-based; details: for GI50: 72 h, MTT assay; for Selectivity index RWPE-1: SI = GI50 (RWPE-1)/GI50 (PC-3); for IC50: Table 3, non tumoral cell model, read-out: IC50 RWPE1 (prostatic epithelial cells); for Specificity Prostate: RWPE1 (normal immortalized)/PC-3 (tumoral): ratio of IC50, tumoral versus non tumoral cells of same tissue
Description: as §1

[5] = test system: A549 human lung carcinoma cells; experiment: Cell viability MTT assay, A549; assay type: cell-based; details: for GI50: 72 h, MTT assay; for IC50: Table 3, tumor cell model
Description: as §2

[6] = test system: MCF-7 human breast adenocarcinoma cells; experiment: Cell viability MTT assay, MCF-7; assay type: cell-based; details: for GI50: 72 h, MTT assay; for IC50: Table 3, tumor cell model
Description: as §2

[7] = test system: T24 human bladder carcinoma cells; experiment: Cell viability MTT assay, T24; assay type: cell-based; details: for GI50: 72 h, MTT assay; for IC50: Table 3, tumor cell model
Description: as §2

[8] = test system: U-2OS human osteosarcoma; experiment: Cell viability MTT assay, U-2OS; assay type: cell-based; details: for GI50: 72 h, MTT assay; for IC50: Table 3, tumor cell model, read-out: IC50 U2OS (bone tumor)
Description: as §2

[9] = test system: HepG-2 human liver cancer cells; experiment: Cell viability MTT assay, HepG-2; assay type: cell-based
Description: (§3) PC-3 human prostate cancer cells, and LAMA chronic myeloid leukemia were cultured in RPMI 1640 containing 10% fetal bovine serum and 1% antibiotics (100 U/mL penicillin and 100 μg/mL streotimycin) at 37° C. in 5% CO2 humidified incubators. HL60 […] were cultured in RPMI 1640 containing 15% fetal bovine serum and 1% antibiotics (100 U/mL penicillin and 100 μg/mL streotimycin) at 37° C. in 5% CO2 humidified incubators. HepG-2 human liver cancer cells were cultured in EMEM containing 10% of FBS, 1% of nonessential amino acids, 1 mM of Na-pyruvate, 1% of PenStrep antibiotics and 600 μg/mL of Geneticin. A549 human lung carcinoma cells, T24 human bladder carcinoma cells, MCF-7 human breast adenocarcinoma cells, U-2OS human osteosarcoma and NIH3T3 murine fibroblast cells were cultured in DMEM medium containing 10% fetal bovine serum and 1% antibiotics at 37° C. in 5% CO2 humidified incubators. MC3T3 mouse osteoblast cells were cultured in MEM medium containing 10% fetal bovine serum and 1% antibiotics at 37° C. in 5% CO2 humidified incubators. RWPE-1 human prostate normal cells were cultured in K-SFM medium containing 0.05 mg/ml bovine pituitary extract (BPE) and 5 ng/ml epidermal growth factor (EGF) at 37° C. in 5% CO2 humidified incubators. The MTT reagent (3-(4,5-dimethylthiazol-2-yl)-2,5-diphenyltetrazolium bromide) was used to determine cell death as originally described by Mosmaneland modified by Cuvillier et al.^[6] Briefly, cells were seeded 5,000 to 10,000 cells/well in 24-well plates depending on the cell type and allowed to attach overnight. All of the complexes were dissolved in DMSO. The concentration of the complexes was calculated according to the elemental composition of the complexes determined by the elemental analyses. […] After solubilization with 500 μL of lysis buffer (DMSO), formazan was quantified by spectrophotometry with a microplate reader at 570 nm absorbance. […] All the results were calculated from data obtained in three independent experiments.

[10] = test system: LAMA chronic myeloid leukemia; experiment: Cell viability MTT assay, LAMA; assay type: cell-based, human; details: for GI50: 72 h, MTT assay; for IC50: Table 3, tumor cell model
Description: as §2

[11] = test system: HL60 (acute myeloid leukemia); experiment: Cell viability MTT assay, HL60; assay type: cell-based; details: for GI50: 72 h, MTT assay; for IC50: Table 3, tumor cell model
Description: as §2

[12] = test system: Non tumoral cell models (MC3-T3, NIH3T3, RWPE1); experiment: MTT assay, mean over non tumoral cell models; assay type: cell-based; details: mean of MC3-T3, NIH3T3, RWPE1
Description: as §3

[13] = test system: Tumor cell models; experiment: MTT assay, panel of tumor cell models; assay type: cell-based, human; details: mean of PC-3, A549, U2OS, T24, MCF-7, LAMA, HL60
Description: as §3

Structure (SMILES): CC(=O)OC[C@H]1O[C@@H]([S-])[C@H](OC(C)=O)[C@@H](OC(C)=O)[C@@H]1OC(C)=O.CCP(CC)CC.[Au+] [Auranofin]
- GI50 [1]: 1.09 µM
- IC50 [1]: 1.09 µM
- GI50 [2]: 1.1 µM
- Selectivity index NIH3T3 [2]: 1.0
- IC50 [2]: 1.1 µM
- GI50 [3]: 1.39 µM
- Selectivity index MC3T3 [3]: 1.2
- IC50 [3]: 1.39 µM
- Specificity Bone: MC3-T3 (normal immortalized)/U2OS (tumoral) [3]: 2.9
- GI50 [4]: 0.084 µM
- Selectivity index RWPE-1 [4]: 0.1
- IC50 [4]: 0.084 µM
- Specificity Prostate: RWPE1 (normal immortalized)/PC-3 (tumoral) [4]: 0.1
- GI50 [5]: 4.41 µM
- IC50 [5]: 4.41 µM
- GI50 [6]: 1.39 µM
- IC50 [6]: 1.39 µM
- GI50 [7]: 1.1 µM
- IC50 [7]: 1.1 µM
- GI50 ([8]; read-out: GI50 U2OS): 0.47 µM
- IC50 [8]: 0.474 µM
- GI50 ([9]; 72 h): 3.62 µM
- GI50 [10]: 0.81 µM
- IC50 [10]: 0.809 µM
- GI50 [11]: 0.95 µM
- IC50 [11]: 0.951 µM
- IC50 [12]: 0.86 µM
- IC50 [13]: 1.46 µM

Structure (SMILES): C[C@H]1[C@@H](O)O[C@@H]2O[C@]3(C)CC[C@H]4[C@H](C)CC[C@@H]1[C@@]24OO3 [DHA, dihydroartemisinin]
- GI50 ([1]; Homo sapiens): 1.56 µM
- IC50 ([1]; Homo sapiens): 1.56 µM
- GI50 ([2]; Mus musculus, NIH3T3): 3.86 µM
- IC50 ([2]; Mus musculus, NIH3T3): 3.86 µM
- Selectivity index NIH3T3 [2]: 2.5
- GI50 ([3]; Mus musculus, Osteoblast): 3.55 µM
- IC50 ([3]; Mus musculus, Osteoblast): 3.55 µM
- Selectivity index MC3T3 [3]: 2.3
- Specificity Bone: MC3-T3 (normal immortalized)/U2OS (tumoral) [3]: 0.9
- GI50 ([4]; Homo sapiens, RWPE-1): 9.68 µM
- IC50 ([4]; Homo sapiens, RWPE-1): 9.68 µM
- Selectivity index RWPE-1 [4]: 6.2
- Specificity Prostate: RWPE1 (normal immortalized)/PC-3 (tumoral) [4]: 6.2
- GI50 ([5]; Homo sapiens, A549): 11 µM
- IC50 ([5]; Homo sapiens, A549): 11 µM
- GI50 ([6]; Homo sapiens, MCF7): 9.67 µM
- IC50 ([6]; Homo sapiens, MCF7): 9.67 µM
- GI50 ([7]; Homo sapiens): 4.99 µM
- IC50 ([7]; Homo sapiens): 4.99 µM
- GI50 ([8]; Homo sapiens, U2OS): 4.1 µM
- IC50 ([8]; Homo sapiens, U2OS): 4.1 µM
- GI50 ([9]; Homo sapiens, HepG2, 72 h): 12 µM
- GI50 ([10]; Homo sapiens): 5.6 µM
- IC50 ([10]; Homo sapiens): 5.6 µM
- GI50 ([11]; Homo sapiens, HL-60): 25 µM
- IC50 ([11]; Homo sapiens, HL-60): 3.25 µM
- IC50 [12]: 5.7 µM
- IC50 ([13]; Homo sapiens): 5.74 µM
